From ChEMBL document CHEMBL1201862, “PubChem BioAssay data set” (2004)
Activity calls are given as the source filed them.

Legend:
[1] = molecular target: T1, High affinity choline transporter 1 (Homo sapiens, UniProt Q9GZV3); assay: human choline transporter blockers, potency – cell-based, 5-point CRC, membrane potential dye, dose response (AID 504840); format: functional
T1 sequence (Q9GZV3 whole entry): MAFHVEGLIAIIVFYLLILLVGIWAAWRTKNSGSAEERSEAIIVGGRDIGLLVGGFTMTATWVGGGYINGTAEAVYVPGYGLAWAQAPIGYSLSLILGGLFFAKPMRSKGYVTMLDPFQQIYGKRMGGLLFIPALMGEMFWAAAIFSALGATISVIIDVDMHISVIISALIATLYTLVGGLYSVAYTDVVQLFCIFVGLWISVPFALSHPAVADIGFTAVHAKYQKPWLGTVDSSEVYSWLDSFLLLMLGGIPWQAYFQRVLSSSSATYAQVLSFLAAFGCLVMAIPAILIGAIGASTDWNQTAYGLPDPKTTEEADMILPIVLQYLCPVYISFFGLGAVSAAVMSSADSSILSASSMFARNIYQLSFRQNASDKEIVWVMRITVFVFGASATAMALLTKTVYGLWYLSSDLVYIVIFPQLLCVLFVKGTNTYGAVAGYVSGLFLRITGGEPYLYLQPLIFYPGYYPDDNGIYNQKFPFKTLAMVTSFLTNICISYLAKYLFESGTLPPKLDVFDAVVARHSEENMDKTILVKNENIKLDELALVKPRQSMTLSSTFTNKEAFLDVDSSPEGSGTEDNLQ

[2] = molecular target: T1, High affinity choline transporter 1; assay: human choline transporter blockers, potency – cell-based, 10-point CRC, membrane potential dye, dose response (AID 588401); format: functional;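 note: membrane potential dye fluorescence of choline-evoked depolarization via CHT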
[3] = molecular target: Hepatocyte nuclear factor 4-alpha (Homo sapiens, UniProt P41235); format: functional, cell-based;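 note: biochemical luminescence-based dose-response counterscreen measuring inhibition of HNF4 dimerization, run alongside a screen for blockers of ABHD5–perilipin-5 interaction; split luciferase complementation of HNF4 fusion proteins in cell lysate measuring dimerization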
[4] = Trypanosoma cruzi growth suppression in host cells – NIH3T3 host cells, beta-gal luminescence, confirmation (AID 2044); format: functional, cell-based;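 note: intracellular parasites grown in NIH/3T3 mouse fibroblasts as host cells; luminescent beta-galactosidase reporter signal from transgenic T. cruzi replicating inside host cells; inhibitors lower the luminescence signal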
Protein skinhead-1 = molecular target: T2, Protein skinhead-1 (Caenorhabditis elegans, UniProt P34707); format: functional
T2 sequence (P34707 whole entry): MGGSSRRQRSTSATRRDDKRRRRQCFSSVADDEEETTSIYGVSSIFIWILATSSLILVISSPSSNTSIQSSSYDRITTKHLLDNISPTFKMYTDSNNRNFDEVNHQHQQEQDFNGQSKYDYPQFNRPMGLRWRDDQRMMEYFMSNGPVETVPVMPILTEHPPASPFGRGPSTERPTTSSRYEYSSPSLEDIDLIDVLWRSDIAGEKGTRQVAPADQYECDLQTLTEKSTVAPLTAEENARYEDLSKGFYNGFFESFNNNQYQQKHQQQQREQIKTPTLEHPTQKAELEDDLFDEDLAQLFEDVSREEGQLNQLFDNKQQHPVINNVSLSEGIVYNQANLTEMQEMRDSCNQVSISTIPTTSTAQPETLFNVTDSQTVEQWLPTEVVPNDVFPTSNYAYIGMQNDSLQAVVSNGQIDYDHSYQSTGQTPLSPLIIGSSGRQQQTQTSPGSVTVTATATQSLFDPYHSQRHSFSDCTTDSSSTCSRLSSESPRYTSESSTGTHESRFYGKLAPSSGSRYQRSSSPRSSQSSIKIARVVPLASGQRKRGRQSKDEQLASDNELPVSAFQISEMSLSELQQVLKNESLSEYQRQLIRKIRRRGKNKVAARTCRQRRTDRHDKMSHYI

[5] = NIH3T3 cell viability loss – ATP luminescence, mouse fibroblasts, counter-screen, dose response (AID 2010); format: functional, cell-based;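 note: cells exposed to compound for about 90 hours before reading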
[6] = molecular target: FAD-linked sulfhydryl oxidase ALR (Homo sapiens, UniProt P55789); assay: ALR-catalysed DTT oxidation blockers – biochemical, H2O2 detection, luminescence, cherry-pick, dose response (AID 493248)
[7] = molecular target: DNA repair and recombination protein RAD54-like (Homo sapiens, UniProt Q92698); assay: RAD54 Holliday junction migration blockers – biochemical, fluorescence, cherry-picked samples, dose series, confirmation (AID 651657); format: functional
[8] = molecular target: T3, DNA repair protein RAD52 homolog (Homo sapiens, UniProt P43351); format: functional, biochemical
T3 sequence (P43351 whole entry): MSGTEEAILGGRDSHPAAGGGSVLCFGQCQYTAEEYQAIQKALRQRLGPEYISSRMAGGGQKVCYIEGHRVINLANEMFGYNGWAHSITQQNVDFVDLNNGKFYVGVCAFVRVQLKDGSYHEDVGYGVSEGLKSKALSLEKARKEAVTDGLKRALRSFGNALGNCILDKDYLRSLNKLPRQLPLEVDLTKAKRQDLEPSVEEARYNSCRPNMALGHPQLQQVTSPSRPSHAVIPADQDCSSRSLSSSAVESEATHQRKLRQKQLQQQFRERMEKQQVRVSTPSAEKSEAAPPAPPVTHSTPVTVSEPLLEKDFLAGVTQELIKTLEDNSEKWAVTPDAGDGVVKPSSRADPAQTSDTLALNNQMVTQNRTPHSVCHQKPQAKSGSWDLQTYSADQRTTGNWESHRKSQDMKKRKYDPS

H9c2 = assay: cells; format: functional, cell-based; conditions: Rattus norvegicus, H9c2, Myocardium;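 note: confirmatory concentration-response retest of ultra-high-throughput screening hits for modulation of myocardial damage; cell death induced by hydrogen peroxide oxidative stress; compound pretreatment for 60 min then peroxide exposure for 2 h; potency is for protecting the cells against peroxide damage rather than for killing them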
[9] = viability of PTEN-deleted HCT116 cells – cell-based, HCT116 PTEN knockout, dose response (AID 1047); format: functional;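 note: HCT116 colon tumor cells with PTEN knocked out; cells exposed to compound for 60 hours before readout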
[10] = viability of HCT116 lacking mutant beta-catenin – cell-based, human colon tumor, dose response (AID 1045); format: functional;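 note: HCT116 colon tumor cells with beta catenin knocked out; cells exposed to compound for 60 hours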
[11] = molecular target: Heat shock protein HSP 90-alpha (Homo sapiens, UniProt P07900); format: functional, organism-based
Interleukin-8 [12] = molecular target: T4, Interleukin-8 (Homo sapiens, UniProt P10145); assay: Dose Response confirmation of uHTS small molecule hits for cystic fibrosis induced NFkb Inhibitors in a TNFa-induced IL8 counterscreen.; format: functional; conditions: read-out: IC50_Mean
T4 sequence (P10145 whole entry): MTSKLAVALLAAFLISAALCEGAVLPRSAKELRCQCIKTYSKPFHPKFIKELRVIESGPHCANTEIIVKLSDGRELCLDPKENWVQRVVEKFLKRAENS

Interleukin-8 [13] = molecular target: T4, Interleukin-8; assay: Dose Response confirmation of uHTS small molecule hits for cystic fibrosis induced NFkb Inhibitors in a PAF-induced IL8 counterscreen.; format: functional; conditions: read-out: IC50_Mean
Melanocortin receptor 4 = Melanocortin receptor 4 (Homo sapiens, UniProt P32245); format: functional, cell-based;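 note: Cell-based assay with luminescence read-out, confirmatory dose-response testing for agonist activity of biased ligands at MC4R; human U2OS cells with tagged receptor and beta-arrestin; potency of agonists that increase receptor coupling to beta-arrestin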
[14] = activation of miR-122 Renilla sensor silencing – cell-based, Huh7 psiCHECK-miR122, Renilla luciferase, cherry-picked, dose response (AID 651956); format: functional;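 note: huh7 hepatoma cells stably carrying a psiCHECK-2 miR-122 sensor plasmid; renilla luciferase signal reporting endogenous miR-122 activity after 48 h compound exposure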
CHO = CHO cell viability loss, potency – luminescence, cytotoxicity control for TLR9-MyD88 binding inhibitor project, dose response (AID 588339); format: functional, cell-based, hamster; conditions: Cricetulus griseus;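 note: CHO cells stably coexpressing TLR9 and MyD88 fusions from primary screen; compound exposure lasted 48 hours before viability readout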
Beta Lactamase [15] = molecular target: T5, Beta Lactamase (Pseudomonas aeruginosa, UniProt Q932Y6); assay: BLA reporter interference, concentration series – BLA reporter cells, FRET fluorescence, artefact control for TLR9-MyD88 binding inhibitor project, dose response (AID 588341); format: cell-based;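 note: cell based assay in CHO-K1 cells stably expressing beta-lactamase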
Large T antigen = Large T antigen (Simian virus 40, UniProt P03070); format: functional, Betapolyomavirus macacae;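 note: Confirmatory-stage PubChem screen for compounds that inhibit SV40 T antigen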
[16] = molecular target: Photoreceptor-specific nuclear receptor (Homo sapiens, UniProt Q9Y5X4); format: functional, cell-based;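 note: CHO-S cells with Gal4-NCOR and VP16-NR2E3 two-hybrid luciferase reporter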
[17] = molecular target: Ras and Rab interactor 1/Tyrosine-protein kinase ABL1 (Homo sapiens, UniProt P00519+Q13671); format: functional;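 note: biochemical TR-FRET dose-response test measuring inhibition of binding between Rin1 and Abl proteins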
[18] = mitochondrial function rescue without frataxin homolog – Friedreich's ataxia, plus single-dose screen, dose response (AID 1465); format: functional;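 note: yeast depleted of Yfh1p frataxin homolog grown on glycerol needing respiration; WST-1 tetrazolium dye reduction as measure of cellular dehydrogenase metabolic activity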
[19] = molecular target: T6, Apoptotic protease-activating factor 1 (Homo sapiens, UniProt O14727); assay: SAR analysis of small molecule inhibitors of Apaf-1 in a Fluorescent assay.; format: functional; conditions: read-out: IC50_Mean
T6 sequence (O14727 whole entry): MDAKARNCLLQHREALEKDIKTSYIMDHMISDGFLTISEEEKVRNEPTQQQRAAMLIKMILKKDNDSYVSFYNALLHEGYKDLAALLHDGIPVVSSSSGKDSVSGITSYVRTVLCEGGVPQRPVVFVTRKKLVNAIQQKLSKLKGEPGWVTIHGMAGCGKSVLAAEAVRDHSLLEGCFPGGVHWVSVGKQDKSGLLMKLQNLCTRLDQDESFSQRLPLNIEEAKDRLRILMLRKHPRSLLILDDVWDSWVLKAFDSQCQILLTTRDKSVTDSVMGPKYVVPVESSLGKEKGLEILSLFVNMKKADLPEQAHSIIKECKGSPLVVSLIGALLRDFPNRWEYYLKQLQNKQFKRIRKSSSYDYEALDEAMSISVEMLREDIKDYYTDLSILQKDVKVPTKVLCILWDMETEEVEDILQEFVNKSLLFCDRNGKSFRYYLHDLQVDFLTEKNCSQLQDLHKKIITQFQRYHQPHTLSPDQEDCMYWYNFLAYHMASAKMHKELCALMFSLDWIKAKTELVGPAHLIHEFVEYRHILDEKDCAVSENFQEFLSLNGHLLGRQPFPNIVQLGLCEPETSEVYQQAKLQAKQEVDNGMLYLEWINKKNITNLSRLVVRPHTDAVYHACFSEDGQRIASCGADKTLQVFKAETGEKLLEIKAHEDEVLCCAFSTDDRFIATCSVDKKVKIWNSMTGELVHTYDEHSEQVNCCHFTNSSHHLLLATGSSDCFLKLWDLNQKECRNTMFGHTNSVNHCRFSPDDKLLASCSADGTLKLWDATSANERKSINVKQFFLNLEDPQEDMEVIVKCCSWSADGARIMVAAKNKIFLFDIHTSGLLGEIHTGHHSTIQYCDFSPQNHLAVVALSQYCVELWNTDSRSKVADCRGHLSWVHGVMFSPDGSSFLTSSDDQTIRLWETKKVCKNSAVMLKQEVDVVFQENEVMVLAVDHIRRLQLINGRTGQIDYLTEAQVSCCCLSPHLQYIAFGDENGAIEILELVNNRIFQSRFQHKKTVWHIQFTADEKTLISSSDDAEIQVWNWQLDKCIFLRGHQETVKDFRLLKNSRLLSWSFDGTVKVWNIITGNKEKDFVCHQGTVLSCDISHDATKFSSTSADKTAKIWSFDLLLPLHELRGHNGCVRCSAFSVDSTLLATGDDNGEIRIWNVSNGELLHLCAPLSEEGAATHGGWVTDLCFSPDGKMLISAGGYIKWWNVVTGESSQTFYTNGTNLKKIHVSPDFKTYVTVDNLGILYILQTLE

[20] = bead-based luminescence quenchers, dual-tagged ARNT – biochemical, AlphaScreen, cherry-pick, artefact control for ARNT-TACC3 interaction inhibitor project, dose response (AID 651705); format: functional;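 note: AlphaScreen bead proximity signal that flags compounds interfering with the detection technology; potency reflects signal decrease which marks the compound as an assay artifact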
Beta Lactamase [21] = molecular target: T5, Beta Lactamase; assay: BLA reporter interference, concentration series – BLA reporter cells, FRET fluorescence, artefact control for NOD2-RIPK2 interaction inhibitor project, dose response (AID 651552); format: functional, cell-based
[22] = Fluorescence-based cell-based high throughput dose response assay for inhibitors of the interaction of nucleotide-binding oligomerization domain containing 2 (NOD2) and the receptor-interacting serine-threonine kinase 2 (RIPK2).; format: functional; conditions: Homo sapiens

T5 sequence (Q932Y6 whole entry): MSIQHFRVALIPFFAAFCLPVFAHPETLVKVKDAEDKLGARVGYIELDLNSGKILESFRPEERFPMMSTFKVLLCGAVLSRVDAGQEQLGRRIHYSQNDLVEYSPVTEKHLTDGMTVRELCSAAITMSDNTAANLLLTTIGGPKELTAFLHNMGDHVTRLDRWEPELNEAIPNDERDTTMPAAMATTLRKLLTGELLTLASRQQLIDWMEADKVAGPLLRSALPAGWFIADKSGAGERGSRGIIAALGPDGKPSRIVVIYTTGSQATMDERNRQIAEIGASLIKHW
FAD-linked sulfhydryl oxidase ALR, sequence (P55789 whole entry): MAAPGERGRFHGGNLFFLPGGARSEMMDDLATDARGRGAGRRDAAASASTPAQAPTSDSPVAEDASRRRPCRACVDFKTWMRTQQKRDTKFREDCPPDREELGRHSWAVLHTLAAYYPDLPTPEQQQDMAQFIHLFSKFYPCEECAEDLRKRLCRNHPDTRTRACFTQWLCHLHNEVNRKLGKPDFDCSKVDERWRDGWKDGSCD
DNA repair and recombination protein RAD54-like, sequence (Q92698 whole entry): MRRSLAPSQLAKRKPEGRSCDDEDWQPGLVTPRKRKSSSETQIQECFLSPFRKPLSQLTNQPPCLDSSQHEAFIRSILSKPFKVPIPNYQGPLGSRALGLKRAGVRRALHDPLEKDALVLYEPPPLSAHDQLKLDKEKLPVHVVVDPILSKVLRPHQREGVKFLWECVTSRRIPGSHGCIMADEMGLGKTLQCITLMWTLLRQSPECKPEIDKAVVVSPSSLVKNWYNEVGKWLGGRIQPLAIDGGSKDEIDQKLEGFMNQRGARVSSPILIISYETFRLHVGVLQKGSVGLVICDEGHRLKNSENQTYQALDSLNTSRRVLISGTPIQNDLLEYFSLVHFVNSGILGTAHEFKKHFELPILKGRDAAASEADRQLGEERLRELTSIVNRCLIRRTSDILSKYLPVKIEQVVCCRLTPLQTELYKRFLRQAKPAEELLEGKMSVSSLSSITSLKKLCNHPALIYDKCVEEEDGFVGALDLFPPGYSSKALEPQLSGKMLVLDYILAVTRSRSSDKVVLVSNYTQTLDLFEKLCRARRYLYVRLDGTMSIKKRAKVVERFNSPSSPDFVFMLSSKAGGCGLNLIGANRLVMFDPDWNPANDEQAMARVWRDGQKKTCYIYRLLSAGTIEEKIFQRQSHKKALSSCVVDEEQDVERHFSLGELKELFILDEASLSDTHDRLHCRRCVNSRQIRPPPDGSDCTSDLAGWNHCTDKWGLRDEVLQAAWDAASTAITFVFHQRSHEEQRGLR
Hepatocyte nuclear factor 4-alpha, sequence (P41235 whole entry, the tested form may be a part): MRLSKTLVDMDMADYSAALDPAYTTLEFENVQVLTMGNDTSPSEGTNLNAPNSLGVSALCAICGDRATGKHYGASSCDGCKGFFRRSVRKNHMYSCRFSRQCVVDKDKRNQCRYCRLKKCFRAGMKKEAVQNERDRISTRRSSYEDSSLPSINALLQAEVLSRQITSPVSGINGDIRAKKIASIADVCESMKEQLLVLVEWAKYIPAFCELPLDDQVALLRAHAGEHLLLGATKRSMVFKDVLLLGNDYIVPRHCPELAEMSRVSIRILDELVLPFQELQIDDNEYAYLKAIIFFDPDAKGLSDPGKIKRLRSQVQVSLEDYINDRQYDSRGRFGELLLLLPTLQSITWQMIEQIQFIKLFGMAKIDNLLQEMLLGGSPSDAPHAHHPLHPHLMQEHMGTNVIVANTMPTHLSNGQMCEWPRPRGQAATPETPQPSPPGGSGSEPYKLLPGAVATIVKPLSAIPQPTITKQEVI
Ras and Rab interactor 1/Tyrosine-protein kinase ABL1, sequence (P00519 whole entry): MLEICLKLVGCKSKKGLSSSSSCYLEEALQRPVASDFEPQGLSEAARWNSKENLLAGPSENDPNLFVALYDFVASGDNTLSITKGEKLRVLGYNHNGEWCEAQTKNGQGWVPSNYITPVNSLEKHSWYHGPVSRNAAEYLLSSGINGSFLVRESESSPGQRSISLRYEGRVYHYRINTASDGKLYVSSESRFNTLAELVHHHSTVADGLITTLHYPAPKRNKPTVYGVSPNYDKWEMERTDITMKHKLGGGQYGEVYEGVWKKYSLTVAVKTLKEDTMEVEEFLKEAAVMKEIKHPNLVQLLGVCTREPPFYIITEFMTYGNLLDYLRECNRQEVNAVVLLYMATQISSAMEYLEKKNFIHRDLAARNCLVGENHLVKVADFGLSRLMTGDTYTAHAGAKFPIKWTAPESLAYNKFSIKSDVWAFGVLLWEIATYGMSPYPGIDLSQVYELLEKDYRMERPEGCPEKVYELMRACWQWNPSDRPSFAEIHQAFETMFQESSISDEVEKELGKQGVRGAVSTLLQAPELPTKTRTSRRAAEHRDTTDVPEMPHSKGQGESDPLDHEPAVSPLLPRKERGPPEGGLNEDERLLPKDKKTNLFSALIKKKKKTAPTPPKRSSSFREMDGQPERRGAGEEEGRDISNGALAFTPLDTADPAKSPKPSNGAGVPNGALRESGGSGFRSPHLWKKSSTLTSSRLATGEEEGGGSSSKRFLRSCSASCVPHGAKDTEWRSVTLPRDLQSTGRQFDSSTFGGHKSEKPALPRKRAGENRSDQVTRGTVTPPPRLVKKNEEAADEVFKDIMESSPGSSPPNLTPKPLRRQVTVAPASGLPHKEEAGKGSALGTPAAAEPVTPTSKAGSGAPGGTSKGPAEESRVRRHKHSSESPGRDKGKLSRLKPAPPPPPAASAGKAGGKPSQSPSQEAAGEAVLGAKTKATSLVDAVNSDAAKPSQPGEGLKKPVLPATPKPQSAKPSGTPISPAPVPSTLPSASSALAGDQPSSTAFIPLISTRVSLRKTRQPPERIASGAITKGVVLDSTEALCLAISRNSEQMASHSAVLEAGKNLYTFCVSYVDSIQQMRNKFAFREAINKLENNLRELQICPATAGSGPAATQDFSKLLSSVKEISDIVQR
Ras and Rab interactor 1/Tyrosine-protein kinase ABL1, sequence (Q13671 whole entry): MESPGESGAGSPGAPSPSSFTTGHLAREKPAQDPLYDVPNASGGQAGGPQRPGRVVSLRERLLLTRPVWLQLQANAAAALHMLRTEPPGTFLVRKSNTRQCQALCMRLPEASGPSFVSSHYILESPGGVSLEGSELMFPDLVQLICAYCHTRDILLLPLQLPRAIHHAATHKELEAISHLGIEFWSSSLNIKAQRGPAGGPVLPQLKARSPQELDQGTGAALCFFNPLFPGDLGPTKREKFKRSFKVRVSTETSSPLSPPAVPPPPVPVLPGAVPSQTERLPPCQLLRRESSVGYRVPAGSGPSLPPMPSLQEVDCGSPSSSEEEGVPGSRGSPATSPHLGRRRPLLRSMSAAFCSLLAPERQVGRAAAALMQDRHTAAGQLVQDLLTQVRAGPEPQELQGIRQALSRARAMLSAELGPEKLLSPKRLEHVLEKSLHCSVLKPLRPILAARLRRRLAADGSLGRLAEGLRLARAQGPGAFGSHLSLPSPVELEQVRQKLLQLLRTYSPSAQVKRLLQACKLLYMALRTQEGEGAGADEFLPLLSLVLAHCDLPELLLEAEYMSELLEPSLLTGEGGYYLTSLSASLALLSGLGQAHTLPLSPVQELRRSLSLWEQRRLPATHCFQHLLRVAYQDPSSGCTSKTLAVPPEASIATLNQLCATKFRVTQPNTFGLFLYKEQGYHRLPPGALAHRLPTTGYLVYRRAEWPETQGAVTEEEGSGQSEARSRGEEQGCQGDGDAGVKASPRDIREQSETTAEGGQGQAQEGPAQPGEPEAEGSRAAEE
Photoreceptor-specific nuclear receptor, sequence (Q9Y5X4 whole entry, the tested form may be a part): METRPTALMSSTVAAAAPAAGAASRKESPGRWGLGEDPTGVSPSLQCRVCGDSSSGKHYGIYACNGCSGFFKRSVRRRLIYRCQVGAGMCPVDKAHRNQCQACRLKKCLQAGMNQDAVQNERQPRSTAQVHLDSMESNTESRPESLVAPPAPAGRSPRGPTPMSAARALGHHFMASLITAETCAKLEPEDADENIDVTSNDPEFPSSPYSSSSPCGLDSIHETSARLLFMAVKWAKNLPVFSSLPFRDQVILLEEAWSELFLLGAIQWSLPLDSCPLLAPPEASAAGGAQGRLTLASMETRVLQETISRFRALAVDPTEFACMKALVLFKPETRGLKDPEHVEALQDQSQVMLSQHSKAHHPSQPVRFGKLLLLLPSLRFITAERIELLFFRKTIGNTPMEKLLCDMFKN
Large T antigen, sequence (P03070 whole entry, the tested form may be a part): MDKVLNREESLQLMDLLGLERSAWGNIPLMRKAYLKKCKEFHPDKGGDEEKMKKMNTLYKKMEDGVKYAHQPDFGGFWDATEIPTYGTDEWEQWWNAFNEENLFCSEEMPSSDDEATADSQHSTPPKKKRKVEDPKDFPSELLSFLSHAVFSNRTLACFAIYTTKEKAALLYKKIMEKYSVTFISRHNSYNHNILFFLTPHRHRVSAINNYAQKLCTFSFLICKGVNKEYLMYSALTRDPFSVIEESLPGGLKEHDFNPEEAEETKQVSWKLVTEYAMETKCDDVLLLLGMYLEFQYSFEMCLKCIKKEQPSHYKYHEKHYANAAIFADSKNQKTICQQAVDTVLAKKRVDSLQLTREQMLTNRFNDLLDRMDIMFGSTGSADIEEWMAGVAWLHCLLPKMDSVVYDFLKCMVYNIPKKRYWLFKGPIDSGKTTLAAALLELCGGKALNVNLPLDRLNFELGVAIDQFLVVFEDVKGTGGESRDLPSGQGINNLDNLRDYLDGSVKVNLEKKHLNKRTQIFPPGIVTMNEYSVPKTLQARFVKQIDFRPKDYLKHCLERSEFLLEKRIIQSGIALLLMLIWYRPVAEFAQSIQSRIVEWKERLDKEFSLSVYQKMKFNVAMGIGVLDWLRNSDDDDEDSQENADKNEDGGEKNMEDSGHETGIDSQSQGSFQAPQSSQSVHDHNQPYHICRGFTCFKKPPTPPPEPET

Cc1ccc(C(C)NC(=O)C2CCCC2)cc1C (stereo not given)
IC50 [1]: 8.58 µM (active) | IC50 [2]: 6.48 µM (active)

O=C(/C=C/c1ccc2c(c1)OCCCO2)c1ccccc1O
IC50 [3]: 5.6 µM (active)

Oc1cccc(Nc2c3ccccc3nc3ccccc23)c1
EC50 [4]: 0.672 µM (active) | IC50 (Protein skinhead-1): > 100 µM (inactive) | EC50 [5]: 21.8 µM (active) | AC50 [6]: 2.66 µM (active) | AC50 [7]: 4.49 µM (active) | AC50 [8]: 3.09 µM (active)

CCOc1ccc(NCc2cc3c(C(C)(C)C)nn(-c4ccccc4)c3nc2O)cc1
IC50 (H9c2): 24.2 µM (active) | EC50 [9]: 9.36 µM (active) | EC50 [10]: 13.5 µM (active) | AC50 [11]: 8.84 µM (active) | IC50 (Interleukin-8 [12]): > 79 µM (inactive) | IC50 (Interleukin-8 [13]): 0.628 µM (active)

Cc1ccc(O)c(C(=O)/C=C/c2ccc3c(c2)OCCCO3)c1
IC50 [3]: 6.11 µM (active) | EC50 (Melanocortin receptor 4): > 89.2 µM (inactive)

Cc1ccc(-n2ncc(C(=O)Nc3cc(Cl)ccc3C)c2C2CCNCC2)cc1C
AC50 [14]: 51.5 µM (active)

CC(=O)c1sc2nc(-c3ccc(C)cc3)c3c(c2c1N)CCCC3
IC50 (CHO): 36.7 µM (inactive) | IC50 (Beta Lactamase [15]): 3.73 µM (active)

Cc1ccc(S(=O)(=O)N2[C@@H](c3ccc(Cl)cc3)C(C(=O)O)=CC[C@H]2c2ccc(C(C)C)cc2)cc1
IC50 (Large T antigen): 60.4 µM (active) | AC50 [6]: 10.3 µM (active) | IC50 [16]: 5.56 µM (active)

COc1ncccc1-c1cc2nc(NCCCN(C)C)n(C)c(=O)c2s1
AC50 [7]: 12.9 µM (active) | AC50 [8]: 4.91 µM (active)

Oc1nccc(N/N=C/c2ccccc2)n1
IC50 [17]: > 73.5 µM (inactive)

Sc1nnc(-c2ccncc2)n1/N=C/C(Cl)=C\c1ccccc1
EC50 [18]: > 100 µM (active) | IC50 (Interleukin-8 [12]): > 79 µM (inactive) | IC50 (Interleukin-8 [13]): 3.4 µM (active)

C[N+]1(C)CCOC(O)(c2ccc(-c3ccc(C4(O)C[N+](C)(C)CCO4)cc3)cc2)C1 (stereo not given)
IC50 [1]: 0.296 µM (active) | IC50 [2]: 0.127 µM (active) | AC50 [8]: 7.78 µM (active)

CCN(CC)CCOC(=O)c1ccc(N/C=C(\C#N)c2nc(-c3cccs3)cs2)cc1
IC50 [19]: 13.7 µM (active)

O=C(COc1nsnc1N1CCOCC1)N/N=C/c1ccccc1O
EC50 [9]: 28.5 µM (active) | AC50 [20]: 107 µM (active) | EC50 [10]: 23.7 µM (active)

C[C@@H]1CN([C@H](C)CO)S(=O)(=O)c2ccc(C3=CCCC3)cc2O[C@@H]1CN(C)C(=O)c1cnccn1
AC50 [14]: 13.5 µM (active)

CCCCCN1C(=O)c2cc(OC)ccc2[C@@]2(C(=O)OCC)Cc3cc(Cl)ccc3[C@@H]12
IC50 (Beta Lactamase [21]): 18.8 µM (inactive) | IC50 [22]: 2.04 µM (active)

CCN(CC)CCOC(=O)c1ccc(N/C=C(\C#N)c2nc(-c3ccc(Br)cc3)cs2)cc1
IC50 [19]: 14.7 µM (active)
